Test results taken from patent US5567738A, “Use of 2-(4-(4-chlorophenyl)cyclohexyl)-3-hydroxy-1,4-Naphthoquinone for the treatment of cancer” (Glaxo Wellcome Inc., priority 1992, dated 1996).

Legend:
Type in all cases: cell-based
[1] = system: P3888D1 (Mouse Leukaemia); assay: Proliferative assay against tumour cell line P3888D1 in vitro; conditions: read-out: Activity (% Growth Inhibition)
Protocol: (§1) Activity Against Tumour Cell Lines In Vitro The activity of the test compound was evaluated using proliferative assays against a number of different turnout cell lines in vitro.

[2] = system: DLD-1 (Human colon adenocarcinoma); assay: Proliferative assay against tumour cell line DLD-1 in vitro; conditions: read-out: Activity (% Growth Inhibition)
Protocol: as §1

[3] = system: WiDr (Human colon adenocarcinoma); assay: Proliferative assay against tumour cell line WiDr in vitro; conditions: read-out: Activity (% Growth Inhibition)
Protocol: as §1

[4] = system: HCT-116 (Human colon carcinoma); assay: Proliferative assay against tumour cell line HCT-116 in vitro; conditions: read-out: Activity (% Growth Inhibition)
Protocol: as §1

[5] = system: A549 (Human lung carcinoma); assay: Proliferative assay against tumour cell line A549 in vitro; conditions: read-out: Activity (% Growth Inhibition)
Protocol: as §1

HT1080SCC2 = assay: Activity against human fibrosarcoma cells in vitro, HT1080SCC2
Protocol: (§2) Activity Against Human Fibrosarcoma Cells In Vitro The activities of the test compound and of a soluble carbamate derivative thereof against two cell lines derived from human fibrosarcoma cells were measured.

HT10801C = assay: Activity against human fibrosarcoma cells in vitro, HT10801C
Protocol: as §2

tumour cell lines = assay: Activity against tumour cell lines in vitro, all cell lines tested (proliferative assays); conditions: at 1001 μM concentration (so in the source)
Protocol: as §1

[6] = system: two cell lines derived from human fibrosarcoma cells; assay: Activity against two cell lines derived from human fibrosarcoma cells in vitro; conditions: both cell lines
Protocol: as §2

[7] = system: carcinoma, adenocarcinoma and fibrosarcoma cells; assay: Activity against tumour cells (general statement)

SMILES | inhibition at 100 µM [1] | inhibition at 100 µM [2] | inhibition at 100 µM [3] | inhibition at 100 µM [4] | inhibition at 100 µM [5] | IC50 (HT1080SCC2) | IC50 (HT10801C) | active against all the cell lines tested (tumour cell lines) | activity against human fibrosarcoma cell lines [6] | activity against tumour cells [7]
O=C1C(O)=C([C@H]2CC[C@H](c3ccc(Cl)cc3)CC2)C(=O)c2ccccc21 [Test Compound, 2-[trans-4-(4-chlorophenyl)cyclohexyl]-3-hydroxy-1,4-naphthoquinone] | 92.3% | 94.2% | 79.4% | 93.8% | 86.6% | 11 µM | 15 µM | active | active | 
O=C1C(O)=C(C2CCC(c3ccc(Cl)cc3)CC2)C(=O)c2ccccc21 (stereo not shown) [compound of formula (II), 2-[4-(4-chlorophenyl)cyclohexyl]-3-hydroxy-1,4-naphthoquinone] |  |  |  |  |  |  |  |  |  | exhibits activity against tumour cells
